Test results from patent US8044198B2, “Sirtuin modulating compounds” (Sirtris Pharmaceuticals, Inc., priority 2005, dated 2011).
Read-outs that look alike come from different tables or passages of the source.

Experiments:
NCI-H358 cells = assay: Cellular ATP Assay (ATPLite 1Step normalized to AlamarBlue viability); format: cell-based
Procedure: Cellular ATP levels are an indirect measurement of cellular metabolic rates and, by extension, mitochondrial function. […] The ATP assay is combined with a cellular viability assay so that cellular ATP levels can be normalized to viable cells. Cellular ATP levels were measured using the ATPLite 1Step Kit (PerkinElmer) and cellular viability was measured using the cell permeable dye, AlamarBlue™.
The Cellular ATP Assay is a multiplexed assay that measures both ATP levels and viability of a given cell sample. This assay is run in a 96-well Assay Plate and data are reported as the [ATP]/viability for each well in the Assay Plate.
The ATPLite 1 Step™ Kit is a single-step luminescent cell-based assay for detection of ATP. The kit contains lyophilized substrate mixture, comprised of D-luciferin and the firefly (Photinus pyralis) enzyme luciferase. Additionally, the kit contains a detergent-based reconstitution buffer that induces the lysis of cellular membranes. The luciferase in the assay mixture catalyzes a reaction between the free cellular ATP and D-luciferin to produce bioluminescence according to the schematic reaction outlined below. The amount of light produced is proportional to the cellular ATP concentration.
The AlamarBlue™ Assay is a single-step assay that utilizes a soluble, non-toxic, cell permeable dye that is added to cell growth media. This dye undergoes electron reduction in viable cells but not dead cells. The reduced dye product gives a fluorescent signal which can be monitored with a fluorescence plate reader (excitation 545 nm and emission 575 nm). The amount of fluorescence generated in a given well is proportional to the number of viable cells. The viability signal generated by this assay is used to normalize the ATP signal from the ATPLite 1Step™ assay results.
The material was dissolved in 100% vehicle (DMSO) to yield a final concentration of 10 mM (stock solution). The stock solution was serially diluted with 100% DMSO as described in SOP 7.10.
In this assay NCI-H358 cells (obtained from the American Tissue Culture Collection, ATCC) were seeded in 96 well microplates (10^4 cells/well). The NCI-H358 Growth Culture Media consists of RPMI 1640 Media supplemented with 10% FBS, […] streptomycin, and 100 units/mL penicillin. […] After 48 hours of compound treatment under cell growth conditions, plates were removed from incubator, and 15 μl of AlamarBlue™ dye was added to each well. Cell microplates were incubated with dye for 2 hours under growth conditions, and fluorescence was subsequently measured using a plate reader. Media containing AlamarBlue™ was removed, and plates were washed in 100 μl of PBS per well. This wash was removed, and 200 μl of 1×ATPLite 1Step reagent was added to each well. Luminescence was then measured using a plate reader. The ATP signal for each well, measured by the luminescence scan, was normalized to its corresponding cell viability value, measured by the fluorescence scan, to generate the average ATP level per viable cell unit (ATP/vCell). The ATP/vCell for each treatment was then normalized to the average vehicle ATP/vCell for its respective cell microplate, yielding the normalized ATP/vCell (norm. ATP/vCell). Finally, the norm. ATP/vCell for each unique treatment was averaged across plate replicates, generating the average norm. ATP/vCell.
Each of these ATP levels was normalized to the cell viability in the corresponding treatment well, generating the ATP/vCell value. Each ATP/vCell value was subsequently normalized to its average Vehicle ATP/vCell values for its respective cell microplate.
Data are represented as the normalized ATP/vCell (arbitrary units). […] These values represent an average of three plate replicates.
A number of compounds were screened for their affect on ATP levels in the assay as described in Example 5. […] NA means that the compound was not tested using the indicated assay.

SIRT1 = target: T1, SIRT1 (Homo sapiens, UniProt Q96EB6); assay: SIRT1 mass spectrometry (MS) based deacetylation assay; format: biochemical
T1 sequence (Q96EB6 1-747): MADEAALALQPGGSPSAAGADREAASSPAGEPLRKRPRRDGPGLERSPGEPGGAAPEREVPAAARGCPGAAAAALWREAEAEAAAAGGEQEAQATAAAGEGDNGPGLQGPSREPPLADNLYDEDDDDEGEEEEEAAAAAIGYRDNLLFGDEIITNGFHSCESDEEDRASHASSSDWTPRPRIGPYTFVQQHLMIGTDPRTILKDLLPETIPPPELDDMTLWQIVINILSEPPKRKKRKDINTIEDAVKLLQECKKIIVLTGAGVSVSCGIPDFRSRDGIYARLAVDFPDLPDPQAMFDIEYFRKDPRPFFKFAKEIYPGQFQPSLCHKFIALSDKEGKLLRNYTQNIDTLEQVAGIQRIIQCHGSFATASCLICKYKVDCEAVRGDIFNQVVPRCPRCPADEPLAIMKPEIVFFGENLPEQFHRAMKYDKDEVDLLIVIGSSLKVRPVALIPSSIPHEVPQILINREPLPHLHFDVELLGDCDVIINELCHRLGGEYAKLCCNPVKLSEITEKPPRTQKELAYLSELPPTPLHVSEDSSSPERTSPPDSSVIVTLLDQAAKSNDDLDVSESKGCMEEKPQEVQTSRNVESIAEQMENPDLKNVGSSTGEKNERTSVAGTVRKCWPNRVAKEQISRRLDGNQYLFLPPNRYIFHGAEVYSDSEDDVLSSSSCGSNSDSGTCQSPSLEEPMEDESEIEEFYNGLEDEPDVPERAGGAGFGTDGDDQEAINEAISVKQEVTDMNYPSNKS

[1] = Homo sapiens, compounds that raised intracellular ATP levels, read-out: ED50 ATP ASSAY
[2] = SIRT1 activation, mass spectrometry assay, read-out: ED50 MS ASSAY
[3] = SIRT1 fold activation as determined by MS

SMILES | EC50 (SIRT1; [2]) | FOLD ACT. MS (SIRT1; [3]) | other results
COc1cccc(C(=O)Nc2cccc(-c3nc4ncccc4o3)c2)c1C [Compound 49] | 5 to 50 µM | – | EC50 (NCI-H358 cells; [1]): < 50 µM; FOLD ACT. MS (SIRT1; fold activation of SIRT1 as determined by MS): B (B (Fold Activation <250%))
Cc1nc(-c2cccc(NC(=O)c3cccc(N(C)C)c3)c2)cs1 [Compound 79] | > 150 µM | – | EC50 (NCI-H358 cells; [1]): < 50 µM
O=C(Nc1ccc2c(c1)OCO2)Nc1cc(-c2nc3ccccc3o2)ccn1 [Compound 86, 1-Benzo[1,3]dioxol-5-yl-3-(4-benzoxazol-2-yl-pyridin-2-yl)-urea] | – | – | EC50 (NCI-H358 cells; [1]): < 50 µM; EC50 (SIRT1): > 150 µM
CN(C)c1cccc(C(=O)N2CCCN(c3nc4ccccc4o3)CC2)c1 [Compound 89] | > 150 µM | – | IC50 (NCI-H358 cells; Homo sapiens, compounds that lowered intracellular ATP levels): < 50 µM
O=C(Nc1ccc2c(c1)OCO2)N1CCCN(c2nc3ccccc3o2)CC1 [Compound 90] | – | – | EC50 (NCI-H358 cells; [1]): > 150 µM
COc1cccc(OC)c1C(=O)Nc1cccc(-c2nc3ccccc3s2)c1 [Compound 120] | – | – | EC50 (NCI-H358 cells; [1]): < 50 µM
COc1cc(C(=O)Nc2cccc(-c3nc4cc(Cl)cc(Cl)c4o3)c2)cc(OC)c1OC [Compound 123] | – | – | EC50 (NCI-H358 cells; [1]): > 150 µM
O=C(O)Cc1csc2nc(-c3ccccc3NC(=O)c3cnc4ccccc4n3)cn12 [Compound 721] | 5 to 50 µM | A (A (Fold activation >250%)) | –
COc1cc(OC)cc(C(=O)Nc2ccccc2-c2nc3cc(CN(C)C)cnc3s2)c1 [Compound 722] | < 5 µM | A (A (Fold activation >250%)) | –
COc1cc(OC)cc(C(=O)Nc2ccccc2-c2nc3c(CN4CCNCC4)ccnc3s2)c1 [Compound 723] | 5 to 50 µM | A (A (Fold activation >250%)) | –
O=C(Nc1ccccc1-c1nc2cc(CN3CCOCC3)cnc2s1)c1ccc2ccccc2n1 [Compound 724] | < 5 µM | A (A (Fold activation >250%)) | –
COc1cc(OC)cc(C(=O)Nc2ccccc2-c2nc3cc(CN4CCN(C)CC4)cnc3s2)c1 [Compound 725] | < 5 µM | A (A (Fold activation >250%)) | –
COc1cc(OC)cc(C(=O)Nc2ccccc2-c2nc3ccc(CN4CCNCC4)nc3s2)c1 [Compound 726] | < 5 µM | A (A (Fold activation >250%)) | –
Cc1ccc(C(=O)Nc2ccccc2-c2nc3ccc(CN4CCNCC4)nc3s2)cc1C [Compound 727] | < 5 µM | A (A (Fold activation >250%)) | –
O=C(Nc1ccccc1-c1nc2ccc(CN3CCNCC3)nc2s1)c1ccc(F)c(F)c1 [Compound 728] | 5 to 50 µM | A (A (Fold activation >250%)) | –
O=C(Nc1ccccc1-c1nc2ccc(CN3CCNCC3)nc2s1)c1ccc2ccccc2n1 [Compound 729] | < 5 µM | A (A (Fold activation >250%)) | –

SMILES | EC50 (SIRT1; [2]) | FOLD ACT. MS (SIRT1; [3]) | other results
O=C(Nc1ccccc1-c1nc2cc(CN3CCNCC3)cnc2s1)c1ccc2ncsc2c1 [Compound 730] | 5 to 50 µM | A (A (Fold activation >250%)) | –
O=C(Nc1ccccc1-c1nc2cc(CN3CCNCC3)cnc2s1)c1cccc(C(F)(F)F)c1 [Compound 731] | 5 to 50 µM | A (A (Fold activation >250%)) | –
O=C(Nc1ccccc1-c1nc2cc(CN3CCNCC3)cnc2s1)c1cc(-c2ccccc2)no1 [Compound 732] | < 5 µM | B (B (Fold Activation <250%)) | –
O=C(Nc1ccccc1-c1cn2c(CN3CCNCC3)csc2n1)c1cccc(-c2cc[nH]n2)c1 [Compound 733] | < 5 µM | A (A (Fold activation >250%)) | –
COc1ccc(-c2cc(C(=O)Nc3ccccc3-c3cn4c(CN5CCNCC5)csc4n3)[nH]n2)cc1 [Compound 735] | < 5 µM | A (A (Fold activation >250%)) | –
COc1ccc(-c2ccc(C(=O)Nc3ccccc3-c3cn4c(CN5CCNCC5)csc4n3)o2)cc1 [Compound 736] | < 5 µM | A (A (Fold activation >250%)) | –
O=C(Nc1ccccc1-c1cn2c(CN3CCNCC3)csc2n1)c1cccc(SC(F)F)c1 [Compound 737] | < 5 µM | A (A (Fold activation >250%)) | –
COc1cccc(C(=O)Nc2ccccc2-c2cn3c(CN4CCNCC4)csc3n2)c1 [Compound 738] | 5 to 50 µM | A (A (Fold activation >250%)) | –
COc1cc(C(=O)Nc2ccccc2-c2cn3c(C)csc3n2)cc(OC)c1OC [Compound 739] | < 5 µM | A (A (Fold activation >250%)) | –
Cc1csc2nc(-c3ccccc3NC(=O)c3cccc(N(C)C)c3)cn12 [Compound 740] | < 5 µM | B (B (Fold Activation <250%)) | –
CN1CCN(Cc2csc3nc(-c4ccccc4NC(=O)c4cnc5ccccc5n4)cn23)C(=O)C1 [Compound 741] | < 5 µM | A (A (Fold activation >250%)) | –
O=C(Nc1ccccc1-c1cn2c(CN3CCSCC3)csc2n1)c1cnc2ccccc2n1 [Compound 742] | < 5 µM | B (B (Fold Activation <250%)) | –
COc1cc(F)cc(C(=O)Nc2ccccc2-c2cn3c(CN4CCNCC4)csc3n2)c1 [Compound 743] | 5 to 50 µM | A (A (Fold activation >250%)) | –
O=C(Nc1ccccc1-c1cn2c(CN3CCNCC3)csc2n1)c1cccnc1F [Compound 744] | 51 to 100 µM | A (A (Fold activation >250%)) | –
O=C(Nc1ccccc1-c1cn2c(Cn3ccnc3)csc2n1)c1cnc2ccccc2n1 [Compound 745] | < 5 µM | A (A (Fold activation >250%)) | –
Oc1ccc(C=Cc2cc(O)cc(O)c2)cc1 [resveratrol, reference compound] | – | – | maximum increase in cellular ATP levels (NCI-H358 cells; 48 hours treatment, at 50 μM resveratrol, normalized ATP/vCell): 3.0 fold; EC50 (NCI-H358 cells; Homo sapiens, 48 hours, 50% of the maximum increase in normalized ATP/vCell, read-out: EC50 ATP): 29 µM
